The record followed here is patent US20250129103A1, “METHODS FOR TREATMENT OF CANCER” (Frontier Medicines Corporation, priority 2022, published 2025).

The target in test [1] is KRAS G12C (GMPPNP-loaded) and PI3Ka (Ras-binding domain) interaction (Homo sapiens (Human), UniProt P01116, C118S/C51S/C80L/G12C). Kind of test: Inhibition of KRAS G12C and PI3Ka binding (AlphaScreen). The conditions noted are these: KRAS G12C loaded with GMPPNP, PI3Ka RBD, 2 hours preincubation; read-out: PI3K RBD K-Ras IC50. As for the experimental part: The AlphaScreen technology was used to determine IC50S for compound inhibition of KRAS G12C (present as the Cys-light (C51S, C80L and C118S), truncated version comprising amino acids 1-169) and PI3Ka interaction. Compounds were diluted in 100% DMSO and each compound concentration was spotted at 200 nl/well onto low volume, white 384 well plates. The KRAS G12C contained a biotin-AviTag and the PI3Ka, as Ras-binding domain (amino acids 157-300, RBD), was His-tagged. KRAS G12C was preloaded with the GTP analogue Guanosine 5′-[β,γ-imido]triphosphate (GMPPNP). The KRAS G12C was diluted in 25 mM Hepes, pH 7.4, 150 mM NaCl, 5 mM MgCl2, 0.01% TritonX-100 and 10 μM GMPPNP and added at 10 ul/well to compound-spotted plates resulting in a DMSO concentration of 2%. Plates were incubated for 2 hours. A mixture of RBD and the AlphaScreen streptavidin donor and nickel chelate acceptor beads diluted in 25 mM Hepes, pH 7.4, 150 mM NaCl, 5 mM MgCl2, 0.01% TritonX-100 and 2% DMSO was then added at 10 ul/well and incubated for 60-90 minutes before the samples were read for emission at 570 nm after excitation of the donor beads at 680 nm. All incubations were performed at room temperature. The final top compound concentration was 50 μM with 1:3 titrations for 10-point dose response curves. Final assay conditions were 1.5 nM KRAS G12C, 100 nM RBD, 1.25 ug/ml of AlphaScreen donor beads and 10 μg/ml AlphaLISA acceptor beads. IC50s were determined using nonlinear regression fit of [inhibitor] vs. response (4 parameters). […]
KRAS G12C (GMPPNP-loaded) and PI3Ka (Ras-binding domain) interaction, sequence (P01116 other isoform, or with tags, fused parts or gaps G12C/C51S/C80L/C118S): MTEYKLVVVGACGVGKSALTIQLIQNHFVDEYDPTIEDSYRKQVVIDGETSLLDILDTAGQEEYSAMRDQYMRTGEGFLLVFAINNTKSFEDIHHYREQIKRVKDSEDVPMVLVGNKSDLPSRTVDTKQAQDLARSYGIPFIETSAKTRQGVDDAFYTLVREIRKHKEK
(In general: Alpha assays give light when donor and acceptor beads are brought close together.)

Test [2] has as its target KRAS G12C (GMPPNP-loaded) and cRAF (Ras-binding domain) interaction (Homo sapiens (Human), UniProt P01116, C118S/C51S/C80L/G12C). Kind of test: Inhibition of KRAS G12C and cRAF binding (AlphaScreen). Particulars: KRAS G12C loaded with GMPPNP, cRaf RBD, 2 hours preincubation; read-out: Raf-1 RBD K-Ras IC50. The method in brief:
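AlphaScreen readout (680 nm excitation, 570 nm emission) of RBD binding after a 60-90 min bead step at room temperature. This step follows 2 h compound exposure of GMPPNP-preloaded KRAS G12C in Hepes pH 7.4 buffer with MgCl2 and 10 μM GMPPNP.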

KRAS G12C (GMPPNP-loaded) and cRAF (Ras-binding domain) interaction, sequence (P01116 other isoform, or with tags, fused parts or gaps G12C/C51S/C80L/C118S): as above

The IC50 is the concentration that gives 50% inhibition. As to `N#CC[C@H]1CN(c2nc(OC[C@@]34CCCN3C[C@H](F)C4)nc3c(F)c(-c4cccc(Cl)c4C4CC4)ncc23)CCN1C(=O)/C=C/CN1[C@@H]2CC[C@H]1COC2` [Compound 100, 2-((S)-1-((E)-4-((1R,5S)-3-oxa-8-azabicyclo[3.2.1]octan-8-yl)but-2-enoyl)-4-(7-(3-chloro-2-cyclopropylphenyl)-8-fluoro-2-(((2R,7aS)-2-fluorotetrahydro-1H-pyrrolizin-7a(5H)-yl)methoxy)pyrido[4,3-d]pyrimidin-4-yl)piperazin-2-yl)acetonitrile], the IC50 in test [1] and in test [2] was less than 10 nM each time.

Regarding `N#CC[C@H]1CN(c2nc(OC[C@@]34CCCN3C[C@H](F)C4)nc3c(F)c(-c4cccc5cccc(F)c45)ncc23)CCN1C(=O)/C=C/CN1C[C@H]2C[C@@H]1CO2` [Compound 220], the IC50 in test [1] and in test [2] was less than 10 nM in each case.

As for `N#CC[C@H]1CN(c2nc(OC[C@@]34CCCN3C[C@H](F)C4)nc3c(F)c(-c4cccc(Cl)c4C4CC4)ncc23)CCN1C(=O)/C=C/CN1CC[C@H](F)C1` [Compound 283], the IC50 in test [1] and in test [2] was less than 10 nM each time.

Take `CC(F)(F)c1noc(/C=C/C(=O)N2CCN(c3nc(OC[C@@]45CCCN4C[C@H](F)C5)nc4c3CCN(c3cccc5cccc(Cl)c35)C4)C[C@@H]2CC#N)n1` [Example 12, 2-((S)-4-(7-(8-chloronaphthalen-1-yl)-2-(((2R,7aS)-2-fluorohexahydro-1H-pyrrolizin-7a-yl)methoxy)-5,6,7,8-tetrahydropyrido[3,4-d]pyrimidin-4-yl)-1-((E)-3-(3-(1,1-difluoroethyl)-1,2,4-oxadiazol-5-yl)acryloyl)piperazin-2-yl)acetonitrile]: the IC50 in test [1] and in test [2] was less than 10 nM in each case.

As to `N#CC[C@H]1CN(c2nc(OC[C@@]34CCCN3C[C@H](F)C4)nc3c(F)c(-c4cccc5cccc(Cl)c45)ncc23)CCN1C(=O)/C=C/CN1CCSCC1` [Compound 97, 2-((S)-4-(7-(8-chloronaphthalen-1-yl)-8-fluoro-2-(((2R,7aS)-2-fluorohexahydro-1H-pyrrolizin-7a-yl)methoxy)pyrido[4,3-d]pyrimidin-4-yl)-1-((E)-4-thiomorpholinobut-2-enoyl)piperazin-2-yl)acetonitrile], the IC50 in test [1] and in test [2] was less than 10 nM in each case.

In the case of `CCc1c(F)ccc2cccc(-c3ncc4c(N5CCN(C(=O)/C=C/c6ccnc(C)n6)[C@@H](CC#N)C5)nc(OC[C@@]56CCCN5C[C@H](F)C6)nc4c3F)c12` [Compound 227], the IC50 in test [1] and in test [2] was less than 10 nM in each case.

With `N#CC[C@H]1CN(c2nc(OC[C@@]34CCCN3C[C@H](F)C4)nc3c(F)c(-c4cccc(Cl)c4C4CC4)ncc23)CCN1C(=O)/C=C/CN1CCOCC1` [Compound 243], the IC50 in test [1] and in test [2] was less than 10 nM in each case.

Take `CN(C/C=C/C(=O)N1CCN(c2nc(OCC34CCCN3CCC4)nc3c2CCN(c2cccc4cccc(Cl)c24)C3)C[C@@H]1CC#N)CC1COC1` [Compound 318]: the IC50 in test [1] and in test [2] was less than 10 nM each time.

For the compound `CN1CCC1/C=C/C(=O)N1CCN(c2nc(OC[C@@]34CCCN3C[C@H](F)C4)nc3c(F)c(-c4cccc5cccc(Cl)c45)ncc23)C[C@@H]1CC#N` (stereo partly shown) [Compound 51], the concentration for half-maximal inhibition (IC50) in test [1] and in test [2] was 10 to 100 nM each time.

For `CO[C@@H]1CCN(C/C=C/C(=O)N2CCN(c3nc(OC[C@@]45CCCN4C[C@H](F)C5)nc4c(F)c(-c5cccc6ccc(F)c(F)c56)ncc34)C[C@@H]2CC#N)C1` [Compound 216], the half-inhibitory concentration (IC50) in test [1] and in test [2] was less than 10 nM each time.

Consider `Cc1cc(N)nc(C2Cc3nc(OC[C@@]45CCCN4C[C@H](F)C5)nc(N4CCN(C(=O)/C=C/c5nc(C(C)C)no5)[C@@H](CC#N)C4)c3CC2C)c1C(F)(F)F` (mixture of isomers) [Example 66, 2-((2S)-4-(7-(6-amino-4-methyl-3-(trifluoromethyl)pyridin-2-yl)-2-(((2R,7aS)-2-fluorotetrahydro-1H-pyrrolizin-7a(5H)-yl)methoxy)-6-methyl-5,6,7,8-tetrahydroquinazolin-4-yl)-1-((E)-3-(3-isopropyl-1,2,4-oxadiazol-5-yl)acryloyl)piperazin-2-yl)acetonitrile], for which the IC50 in test [1] and in test [2] was 10 to 100 nM in each case.

Take `CCc1nccc(/C=C/C(=O)N2CCN(c3nc(OC[C@@]45CCCN4C[C@H](F)C5)nc4c(F)c(-c5cccc6cccc(Cl)c56)ncc34)C[C@@H]2CC#N)n1` [Compound 150]: the half-inhibitory concentration (IC50) in test [1] and in test [2] was less than 10 nM throughout.

On to `N#CC[C@H]1CN(c2nc(OC[C@@]34CCCN3C[C@H](F)C4)nc3c(F)c(-c4cccc5cccc(F)c45)ncc23)CCN1C(=O)/C=C/CN1C[C@@H]2C[C@H]1CO2` [Compound 219], for which the half-inhibitory concentration (IC50) in test [1] and in test [2] was less than 10 nM throughout.

On to `N#CC[C@H]1CN(c2nc(OCC34CCCN3CCC4)nc3c2CCN(c2cccc4cccc(Cl)c24)C3)CCN1C(=O)/C=C/CN1CCOCC1` [Example 11, (S,E)-2-(4-(7-(8-chloronaphthalen-1-yl)-2-((hexahydro-1H-pyrrolizin-7a-yl)methoxy)-5,6,7,8-tetrahydropyrido[3,4-d]pyrimidin-4-yl)-1-(4-morpholinobut-2-enoyl)piperazin-2-yl)acetonitrile], for which the IC50 in test [1] is 10 to 100 nM; in test [2] it was less than 10 nM.

Take `Cc1cc(/C=C/C(=O)N2CCN(c3nc(OC[C@@]45CCCN4C[C@H](F)C5)nc4c(F)c(-c5cccc6cccc(Cl)c56)ncc34)C[C@@H]2CC#N)nc(C)n1` [Example 69, 2-((S)-4-(7-(8-chloronaphthalen-1-yl)-8-fluoro-2-(((2R,7aS)-2-fluorotetrahydro-1H-pyrrolizin-7a(5H)-yl)methoxy)pyrido[4,3-d]pyrimidin-4-yl)-1-((E)-3-(2,6-dimethylpyrimidin-4-yl)acryloyl)piperazin-2-yl)acetonitrile]: the IC50 in test [1] and in test [2] was less than 10 nM throughout.

Turning to `CC(F)(F)c1noc(/C=C/C(=O)N2CCN(c3nc(OCC45CCCN4CCC5)nc4c(F)c(-c5cccc6cccc(Cl)c56)ncc34)C[C@@H]2CC#N)n1` [Example 13, (S,E)-2-(4-(7-(8-chloronaphthalen-1-yl)-8-fluoro-2-((tetrahydro-1H-pyrrolizin-7a(5H)-yl)methoxy)pyrido[4,3-d]pyrimidin-4-yl)-1-(3-(3-(1,1-difluoroethyl)-1,2,4-oxadiazol-5-yl)acryloyl)piperazin-2-yl)acetonitrile], the IC50 in test [1] and in test [2] was 10 to 100 nM in each case.

For the compound `N#CC[C@H]1CN(c2nc(OCC34CCCN3CCC4)nc3c2CCN(c2cccc4cccc(Cl)c24)C3)CCN1C(=O)/C=C/CN1CCCCC1` [Compound 170], the IC50 in test [1] and in test [2] was less than 10 nM in each case.

In the case of `N#CC[C@H]1CN(c2nc(OCC34CCCN3CCC4)nc3c2CCN(c2cccc4cccc(Cl)c24)C3)CCN1C(=O)/C=C/CN1CCC(F)(F)CC1` [Compound 159], the IC50 in test [1] and in test [2] was less than 10 nM each time.

On to `N#CC[C@H]1CN(c2nc(OC[C@@]34CCCN3C[C@H](F)C4)nc3c(F)c(-c4cccc5cccc(Cl)c45)ncc23)CCN1C(=O)/C=C/CN1C[C@@H]2C[C@H]1CO2` [Compound 180], for which the IC50 in test [1] and in test [2] was less than 10 nM in each case.

As to `Cc1nccc(/C=C/C(=O)N2CCN(c3nc(OC[C@@]45CCCN4C[C@H](F)C5)nc4c(F)c(-c5cccc6ccc(F)c(F)c56)ncc34)C[C@@H]2CC#N)n1` [Compound 211], the IC50 in test [1] and in test [2] was less than 10 nM each time.
